According to patent EP2386631A1, “Purified lipase, methods of modification and applications” (Universiti Putra Malaysia, priority 2010, dated 2011):
Several values for one entry are separate records, joined by “and”; a condition that tells them apart may be missing. Identical values can stand only once. Square brackets hold non-standard residues; d marks the D form. Peptide text beside a SMILES is read from it. * marks the point of attachment. Sta = CC(C)C[C@H](N)[C@@H](O)CC(=O)O; Isovaleryl = CC(C)CC(=O)*

What was measured:
[1] = tested on: 205y lipase (-SP/TM); experiment: Effect of inhibitors on lipase activity; assay type: biochemical, Bacillus sphaericus 205y; settings: for Relative activity (100%): 37°C, 30 min prior to lipase assay, mean ± SD, n=3
Procedure: The effect of inhibitors were tested on 205y lipase (-SP/TM) activity by preincubating the enzyme with dithiothreitol (DTT), β-mercaptoethanol, phenylmethylsulfonyl fluoride (PMSF), ethylenediaminetetraacetic acid ([…]) except for pepstatin A (1 mM). The residual activity was measured at optimum temperature and expressed as percentage of activity without inhibitor.

[2] = tested on: 205y lipase (-SP/TM); experiment: Effect of organic solvents on lipase activity; assay type: biochemical, Bacillus sphaericus 205y; settings: enzyme:solvent 3:1 v/v, 37°C, 30 min; relative to activity without organic solvent
Procedure: The activity of 205 lipase (-SP/TM) towards the presence of organic solvents was tested by preincubating a mixture of purified enzyme with organic solvents (3:1, v/v) for 30 min at agitation rate of 200 rpm. Residual activity was measured at optimum temperature and expressed as percentage of activity without organic solvent. […] Mixture of enzyme and organic solvent (3:1 v/v) was incubated at 37°C for 30 min and the residual activity was measured using spectrophotometric method.

[3] = tested on: 205y lipase (-SP/TM); experiment: Effect of metal ions on lipase activity; assay type: biochemical, Bacillus sphaericus 205y; settings: 1 mM metal chloride, 50 mM potassium phosphate buffer pH 8.0, 37°C, 30 min
Procedure: The effect of metal ions on lipase activity was investigated by treating 205y lipase (-SP/TM) with 1 mM and 10 mM of various metal chlorides ( Na^+, K^+, Mg^2+, Ca^2+, Fe^2+, Mn^2+, Zn^2+ and Cu^2+) in 50 mM potassium phosphate buffer pH 8.0 at 37°C for 30 min. The mixture was subjected to lipase assay after treatment and expressed as a percentage of activity without the metal chloride.

[4] = tested on: wild type organic solvent stable lipase secreted by Bacillus sphaericus 205y; settings: presence of the solvent; cited from earlier work
[5] = tested on: 205y lipase (-SP/TM); experiment: Effect of surfactants on lipase activity; assay type: biochemical, Bacillus sphaericus 205y; settings: 0.1% surfactant (text: 1 mM), 37°C, 30 min prior to lipase assay, mean ± SD, n=3
Procedure: The activity of 205y lipase (-SP/TM) towards surfactants was determined by preincubating the enzyme with various surfactants at a concentration of 1 mM at 37°C for 30 min. The surfactants used were Tween 20, Tween 40, Tween 60, Tween 80, Triton X-100, sodium dodecyl sulphate (SDS) and sodium lauryl sulphate (SLS). Residual activity was measured colorimetrically and expressed as percentage of activity without surfactant. […]. Table 7. Effect of surfactants on 205y lipase (-SP/TM) activity

[6] = cited from earlier work

O[C@H](CS)[C@H](O)CS (racemic) [DTT, dithiothreitol]
inhibition ([1]; 1 mM inhibitor): 16.6%
Relative activity (100%) ([1]; 1 mM inhibitor): 83.4 ± 2.0%
Relative activity (100%) ([1]; 10 mM inhibitor): 45.5 ± 2.5%

CCCCCCCCCCO [1-decanol]
lost in activity [2]: more than 50%

[Ca+2] [Ca^2+]
effect on lipase activity [3]: promoted

[Cu+2] [Cu^2+]
activity retained [3]: > 50%

C[S+](C)[O-] [DMSO, dimethyl sulfoxide]
lipase activity lost [4]: approximately 80%
enhancement in activity [2]: more than 30%

O=C(O)CN(CCN(CC(=O)O)CC(=O)O)CC(=O)O [EDTA, ethylenediaminetetraacetic acid]
Relative activity (100%) ([1]; 1 mM inhibitor): 78.2% and 78.2 ± 1.8%
Relative activity (100%) ([1]; 10 mM inhibitor): 40.1 ± 4.2%

[Fe+2] [Fe^2+]
activity retained [3]: > 50%

[K+] [K^+]
effect on lipase activity [3]: promoted

[Mg+2] [Mg^2+]
effect on lipase activity [3]: promoted

[Mn+2] [Mn^2+]
activity retained [3]: > 50%

[Na+] [Na^+]
activity retained [3]: > 50%

O=S(=O)(F)Cc1ccccc1 [PMSF, phenylmethylsulfonyl fluoride]
Relative activity (100%) ([1]; 1 mM inhibitor): 74.0 ± 3.3%
Relative activity (100%) ([1]; 10 mM inhibitor): 70.3 ± 2.8%

CC(C)CC(=O)N[C@H](C(=O)N[C@H](C(=O)N[C@@H](CC(C)C)[C@@H](O)CC(=O)N[C@@H](C)C(=O)N[C@@H](CC(C)C)[C@@H](O)CC(=O)O)C(C)C)C(C)C [Pepstatin A, pepstatin A] (Isovaleryl-VV[Sta]A[Sta]-OH)
Relative activity (100%) ([1]; 1 mM inhibitor): 86.9 ± 1.5%

CCCCCCCCCCCCOS(=O)(=O)[O-].[Na+] [SDS, sodium dodecyl sulphate]
Relative activity (100%) ([5]; sulphate): 28.9 ± 2.8%

CCCCCCCCCCCCOS(=O)(=O)[O-].[Na+] [SLS, sodium lauryl sulphate]
Relative activity (100%) ([5]; sulphate): 52.5% and 52.5 ± 1.9%

[Zn+2] [Zn^2+]
activity retained [3]: > 50%

CC#N [acetonitrile]
log P [6]: -0.15
effect on lipase activity [4]: complete deactivation
enhancement in activity [2]: more than 30%

CCO [ethanol]
enhancement in activity [2]: more than 30%

CCCCCCCCCCCCCCCC [hexadecane]
log P [6]: 8.8
enhancement in activity [2]: more than 30%

CO [methanol]
log P [6]: -0.76
enhancement in activity [2]: more than 30%

CCCCCCCCCC [n-decane]
log P [6]: 5.6
enhancement in activity [2]: more than 30%

CCCCCCCCCCCC [n-dodecane]
log P [6]: 6.6
lost in activity [2]: more than 50%

CCCCCC [n-hexane]
enzyme activity enhanced [4]: 3.5 fold

Cc1ccc(C)cc1 [p-xylene]
log P [6]: 3.1
enzyme activity enhanced [4]: 2.9 fold
lost in activity [2]: more than 50%

Cc1ccccc1 [toluene]
lost in activity [2]: more than 50%

OCCS [β-mercaptoethanol]
inhibition ([1]; 1 mM inhibitor): 2.8%
Relative activity (100%) ([1]; 1 mM inhibitor): 97.2 ± 2.7%
Relative activity (100%) ([1]; 10 mM inhibitor): 76.3 ± 1.2%

Triton X-100
Relative activity (100%) [5]: 47.3 ± 4.4%

Tween 20
Relative activity (100%) [5]: 31.3 ± 1.1%

Tween 40
Relative activity (100%) [5]: 27.9 ± 1.7%

Tween 60
Relative activity (100%) [5]: 34.0 ± 3.5%

Tween 80
Relative activity (100%) [5]: 29.4 ± 2.4%

n-butanol
lost in activity [2]: more than 50%
